The subject of experiment [1] is PD-1 and β2M on OVCAR5 (human ovarian) cells. The experiment is described as follows: PD-1 and B2M expression on OVCAR5 cells. The class given is cell-based. How it is done:
Tumor and ascites were collected for flow cytometry analyses. Summary graph of CD45-PD-L1 cell percentage and MFI. FIG. 33D, PD-1 and B2M expression on OVCAR5 (human ovarian) cells treated with (+) or without (−) chlorambucil for 48 hours.
(§1) Flow cytometry: Mice were sacrificed by cervical dislocation after induction of deep isoflurane anesthesia. ID8agg tumors were collected and cells were stained as described (Derup et al., 2020) using LSR II hardware and analyzed by FACS Diva (BD Bioscience) or Flow Jo software (Flow Jo, LLC). Anti-mouse (clone 10F.9G2) and human (clone 29E.2A3) PD-L1 [both PE/Cy7, Cat #124314 (mouse) 329718 (human)] were matched with isotype control. Apoptosis assessment used Annexin V and propidium iodide (Thermo Scientific) per manufacturer instruction.

A further experiment relates to ID8agg and B16 cells. Kind of experiment: Chlorambucil in vitro cell growth, viability, apoptosis and calreticulin. The class given is cell-based, mouse. How it is done:
FIGS. 34A-D: FIG. 34A, Cells cultured in vitro with chlorambucil at indicated concentrations and counts determined on Vi-Cell. p-value, unpaired t-test. VC, vehicle control. FIG. 34B, Annexin V-FITC/PI (AV/PI) dual staining assay. Upper left, necrotic cells). Lower left, live cells. Lower right, early apoptotic cells and upper right, late apoptotic cells. ID8agg (CAMB 5 μM) and B16 (CAMB 10 μM) cells were treated for 48 hours. FIG. 34C, CAMB-treated ID8agg and B16 cells stained with an isotype control or an anti-calreticulin (CRT) antibody followed by immunofluorescence cytometry. FIG. 34D, Tumor cells were treated with the indicated concentrations with CAMB 48 h. Cell viability was detected by CCK-8 assay and relative cell viability ratio were compared between WT cells and PD-L1KO or PD-Lllo cells at different concentration point.
Cell proliferation and viability assays: Cells (0.5-1×10^3) were plated in 96-well plastic culture plates in 100 μL medium and treated with CAMB. Cell viability was determined by a cell counting kit-8 (CCK-8) (Sigma). Absorbance was measured at 450 nm using a BioTek Synergy 2 Multi-Mode Plate Reader. Proliferation was assessed in triplicate in three separate experiments for in vitro all data shown.
as §1

The next experiment concerns PD-L1 in OVCAR5 cells. The experiment is described as follows: PD-L1 mRNA, protein and ubiquitination in OVCAR5 cells. It is filed as cell-based, human. How it is done:
FIGS. 39A-C: CAMB reduces PD-L1 through ubiquitination. FIG. 39A, RT-qPCR for PD-L1 mRNA in OVCAR5 and ID8agg cells treated with (+) or without (−) chlorambucil for 48 hours. (n=4). FIG. 39B, Western blot for PD-L1 protein in OVCAR5 cells with (+) or without (−) MG132 for 6 or 20 hours. (upper panel). PD-L1 expression in OVCAR5 cells treated with chlorambucil 48 hours and/or MG132 for 6 hours (lower panel). FIG. 39C, Ubiquitinated PD-L1 was immunoprecipitated (IP) and subjected to Western blot analysis with anti-ubiquitin (Ub) antibody. Cells were treated with chlorambucil for indicated times prior to ubiquitination analysis.
Western blotting and immunoprecipitation: To prepare whole cell lysates, cells were harvested and lysed in RIPA (radioimmunoprecipitation assay) buffer plus 1 mM phenylmethylsulphonyl fluoride and Halt protease/phosphatase inhibitor cocktail (Thermo Scientific) at 4° C. Protein concentrations were measured by BCA Protein Assay Kit (Thermo Scientific). Protein was run on precast 4-15% sodium dodecyl sulfate polyacrylamide gels (Bio-Rad), transferred to polyvinylidene fluoride membranes (GE Water and Process Technologies), and then blocked in 5% non-fat milk for 1 hour at room temperature. The membranes were then incubated with 1:1000 diluted primary antibodies against indicated proteins (Cell Signaling). Specific antibody binding was detected by chemiluminescence using Western Lightening Plus regent (Perkin Elmer). Cells for (co) immunoprecipitation experiments were seeded in 15-cm dishes and cultured as described, using 6 million cells per immunoprecipitation reaction. For protein ubiquitination, cells were lysed in denaturing buffer (50 mM Tris-HCl, 0.5 mM EDTA and 1% SDS) followed by heating at 95° C. for 10 minutes and then quenched with 9 volumes of quenching buffer (0.5% Triton X-100, 20 mM Tris-HCl (pH 8.0), 137 mM NaCl, 10% glycerol, 2 mM EDTA). Protease inhibitor cocktail (Roche) was added fresh to all buffers. Cell lysates were incubated on a rotator for 30 minutes at 4° C., and then centrifuged at 20,000 g for 15 minutes at 4° C. Supernatants were subsequently incubated with anti-PD-L1 antibody overnight and processed using Dynabeads Protein G for Immunoprecipitation (Thermo Fisher Scientific). The final eluate was processed and Western blotting was performed.
Quantitative Real-Time Reverse Transcriptase Polymerase Chain Reaction: Total RNA was isolated from homogenized whole lung tissue with Trizol reagent (Invitrogen) according to manufacturer instructions. […] Quantitative PCR (qPCR) was conducted using the Bio-Rad Real-Time PCR System (Applied Biosystems), amplified with transcript-specific primers with SYBR Green (Thermo Scientific), according to manufacturer instructions. […]

This is an account of results in patent US12404332B2, “Methods for diagnosing and treating cancers” (Research Development Foundation, priority 2020, dated 2025).

With `O=C(O)CCCc1ccc(N(CCCl)CCCl)cc1` [chlorambucil], the “PD-1 and β2M on the cell surface” value in experiment [1] was “Upregulation”. In the experiment on ID8agg and B16 cells, the “cell growth in vitro” value is reported as “inhibited cell growth in vitro with little or no killing”, the cell surface calreticulin result is listed as “significantly increased”, the “immunogenic cell death (ICD)” value is listed as “induced ICD independent of tumor PD-L1 status” and the “sensitivity of CTRL cells compared with PD-L1^lo or PD-L1^KO cells” value was “more sensitive”. For the same compound, the apoptosis result in the experiment on ID8agg and B16 cells (ID8agg or B16 cells) was “did not induce apoptosis”. The “amount of ubiquitinated PD-L1” value in the experiment with PD-L1 in OVCAR5 cells (Co-IP) was “increased”. Besides, in the experiment with PD-L1 in OVCAR5 cells (OVCAR5 cells), the “PD-L1 mRNA” value is reported as “little changed”.
